Assay results published in patent publication US10301348B2, “Compounds for use in prevention and treatment of neurodegenerative diseases and pain” (Academia Sinica, priority 2013, dated 2019).
pKi: −log10 of the molar value. “Also recorded” adds a separate entry of the source.

Columns and labels:
TDP-43 transgenic mice = TDP-43 transgenic mice (ALS): rotarod and grip strength; assay type: in vivo
human A2AR = human A2AR (Homo sapiens, UniProt P29274); assay: A2AR radioligand binding assay (3H-CGS21680)
Experimental: (§1) Binding of the indicated compounds to A2A adenosine receptor (A2AR) and an adenosine transporter (ENT1) was characterized using standard binding protocols.
(§2) Radioligand binding assays. Radioligand binding assays were performed by MDS Pharma Services Taiwan (Taipei, Taiwan) using standard binding protocols. For A2AR binding assays, membrane proteins collected from HEK293 cells overexpressing human A2AR were incubated in the reaction buffer [50 mM Tris-HCl (pH 7.4), 10 mM MgCl2, 1 mM EDTA, and 2 U/mL adenosine deaminase] containing ^3H-CGS21680 (50 nM) for 90 min at 25° C. Nonspecific binding was assessed in the presence of 50 μM adenosine-5′-N-ethylcarboxamide. […] Binding assays for adenosine transporters were conducted as described earlier. Membrane fractions collected from the cerebral cortex of Duncan Hartley-derived guinea pigs were incubated with ^3H-labeled 6-[(4-nitrobenzyl)thio]-9-β-D-ribofuranosylpurine (NBTI, 0.5 nM) for 30 min at 25° C. in the incubation buffer containing 50 mM Tris-HCl (pH 7.4). […] Reactions were terminated by filtration over GF/B glass fibers and washing with the reaction buffer.

[1] = biological target: T1, adenosine transporter (ENT1) (Cavia porcellus, UniProt H0V4R7); assay: Adenosine transporter (ENT1) radioligand binding assay (3H-NBTI)
T1 sequence (H0V4R7 1-461): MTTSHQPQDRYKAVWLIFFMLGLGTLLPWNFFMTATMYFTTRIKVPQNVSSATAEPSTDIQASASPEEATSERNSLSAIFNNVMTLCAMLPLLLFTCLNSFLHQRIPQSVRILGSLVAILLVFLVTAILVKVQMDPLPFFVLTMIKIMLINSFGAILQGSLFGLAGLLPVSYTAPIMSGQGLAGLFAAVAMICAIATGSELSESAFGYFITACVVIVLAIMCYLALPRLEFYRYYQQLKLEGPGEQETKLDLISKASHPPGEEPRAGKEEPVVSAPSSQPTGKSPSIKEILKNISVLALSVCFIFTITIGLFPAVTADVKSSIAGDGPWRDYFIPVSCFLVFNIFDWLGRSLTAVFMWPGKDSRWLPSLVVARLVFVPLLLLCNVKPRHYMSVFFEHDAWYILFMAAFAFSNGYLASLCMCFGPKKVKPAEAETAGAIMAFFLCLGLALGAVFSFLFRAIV
Experimental: as §1, §2

[2] = system: SCA3 transgenic mice expressing ataxin-3-Q79; assay: SCA3 transgenic mice: rotarod test and NeuN staining of pontine nuclei; conditions: 4-month-old SCA3 transgenic mice
Experimental: (A) SCA3 transgenic mice were given drinking water containing vehicle (0.2% DMSO) or T1-11 (0.1 mg/ml) beginning at 4 weeks-old.
Behavioral test. Balance and coordination functions of mice were determined by performing rotarod test. Mice were placed on the moving drum of a rotarod apparatus (Accelerating Model, Ugo Basile Biological Research Apparatus), which was then accelerated until mouse fell from the drum onto a plate to stop the timer. Latency to fall was measured in four daily trials over the course of 4 days.
Immunohistochemical staining. Wild-type or SCA3 transgenic mice were anesthetized and perfused transcardially with 4% paraformaldehyde in PBS. Brain was equilibrated in Tissue-Tek embedding medium and frozen in liquid nitrogen. Coronal sections (20 μm) prepared by cryostat sectioning were permeabilized in 0.1% Triton X-100, and incubated at 4° C. for 48 hours with diluted anti-NeuN monoclonal antiserum (Chemicon). Subsequently, sections were washed and incubated with biotinylated horse anti-mouse IgG followed by incubation with avidin-biotin-horseradish peroxidase complex. The sections were then washed and developed in a diaminobenzidine solution. NeuN-positive neurons were visualized and counted by a Leica DM2500 microscope equipped with a Retiga-2000R CCD camera (QImaging) and a 3-axis computer-controlled MAC 600 motorized stage (Ludl Electronics) with the aid of StereoInvestigator software (MBF Bioscience). Each analysis included the processing of 15 brain sections per mouse.

[3] = Oral bioavailability / pharmacokinetic study in ICR mice; assay type: in vivo
Experimental: To measure oral bioavailability of a test compound, blood samples were collected from male ICR mice (6 weeks old; 20-25 g) after oral (10 mg/kg) or intravenous (1 mg/kg) administrations of the test compound. The blood samples collected at the indicated periods were extracted with methanol containing 0.1% formic acid, and then 10 μL of each extracted sample were injected to UPLC-MSMS for quantitation.
Pharmacokinetic Study. The compound was administered as aqueous solutions in normal saline. Male ICR mice were purchased from BioLASCO Taiwan Co., Ltd. To measure oral bioavailability of test compounds (T1-11 and JMF3464), blood samples were collected from male ICR mice (6 weeks old; […]) after oral (10 mg/kg) or intravenous (1 mg/kg) administrations of test compounds. For T1-11, blood samples were collected at 2, 10, 30, 60, 120, 360 minutes after intravenous administration and at 15, 30, 45, 60, 120, 360 minutes after oral administration. For JMF3464, the blood samples were collected at 2, 10, 30, 60, 120, 240, 360, 480 minutes after intravenous administration and at 15, 30, 60, 90, 120, 240, 360, 480 minutes after oral administration. The blood samples were extracted by methanol with 0.1% formic acid, and then 10 μL of the extracted samples were injected to UPLC-MSMS to for quantitation.
The pharmacokinetic parameters were obtained using a pharmacokinetic program WinNonlin, fitting data to a noncompartmental model. […] The total plasma clearance (CL) was calculated as dose/AUCi.v.. The oral bioavailability (F) of the test compound by oral administration was calculated from the AUC0-∞ of the oral dose divided by the AUC0-∞ of the i.v. dose.

R6/2 mice = assay: Transgenic mouse model (R6/2) of Huntington's disease: rotarod and lifespan; assay type: in vivo
Experimental: FIGS. 3A-B show the effect of JMF3464 on motor deficits and lifespan. […] Rotarod performance (A) and lifespan (B) of these mice were assessed. * p<0.05. *** p<0.005.
As the A2AR and ENT1 are located in the striatum and have been implicated in striatal function, we hypothesized that chronic treatment with JMF3464 would modulate the progression of HD. We tested the effect of JMF3464 in a transgenic mouse model (R6/2) of HD in which A2AR agonists have beneficial effects.
Animals and drug administration. Male R6/2 mice (Mangiarini et al., 1996 Cell. 87:493-506) and littermate controls were originally obtained from Jackson Laboratories (Bar Harbor, Me., USA), and mated to female control mice (B6CBAFI/J). Offspring were identified by a polymerase chain reaction (PCR) genotyping technique of genomic DNA extracted from tail tissues using primers located in the transgene (5′-[…]-3′; SEQ ID NO: 1, and 5′-GGCTGAGGAAGCTGAGGAG-3′; SEQ ID NO: 2) to ensure that the number of CAG repeats remained approximately 150. […] Body weights of mice were recorded once daily. […]
Rotarod performance. Motor coordination was assessed using a rotarod apparatus (UGO BASILE, Comerio, Italy) at a constant speed (12 rpm) over a period of 2 min (Carter et al., 1999 J Neurosci. 19:3248-3257). […] Latency to fall was recorded automatically. […]

NSC34 cells = assay: TDP-43 mislocalization caused by AICAR (AMPK activation), immunostaining; assay type: cell-based; conditions: 30 μM, 1 h pretreatment then AICAR 1 mM for 24 hrs
Experimental: Cells were pretreated with JMF3464 (30 μM) for one hour, and then treated with AICAR (1 mM, Al) in the presence of JMF3464 for additional 24 hrs. TDP-43 (red) localization was analysed by immunostaining. The locations of nuclei were marked by Hochest (blue).
Cell culture and transfection. The motor neuron cell line (NSC34) was a generous gift from Dr. Neil Cashman (Brain Research Centre, The University of British Columbia, Canada), and cultured in a high-glucose Dulbecco's modified Eagle's medium (DMEM) containing 10% fetal calf serum (FCS), 2 mM L-glutamine, and 1% penicillin/streptomycin (Invitrogen GibcoBRL, Carlsbad, Calif., USA) at 37° C. under 5% CO2.

[4] = system: mice treated with intermittent cold stress; assay: Intermittent cold stress model of fibromyalgia; assay type: in vivo
Experimental: FIGS. 10A-C show the analgesic effect of JMF3464 on a mouse model of fibromyalgia. […] Open arrows indicate the time mice received acid injection. Black arrows indicate the time mice received T1-11 (p.o.). […] The analgesic effect of JMF3464 is dose-dependent. The effective dose started from 100 μg/kg (i.p.).
Intermittent cold stress model. The fibromyalgia model was developed by Ueda's group, in which mice were treated with intermittent cold stress for 2 days (Nishiyori and Ueda, 2008 Mol Pain. 4:52). Mice treated with intermittent cold stress developed long-lasting (>2 weeks) mechanical and thermal hyperalgesia. Analgesic effects of JMF3464 (i.p. or p.o.) were tested in these mice 5 days after intermittent cold stress. Mechanical hyperalgesia was assayed by testing the withdrawal response of mouse hindpaws to 0.2-mN von Frey filament stimulation.

PC12 cells = assay: Serum deprivation-induced cell death, MTT assay; assay type: cell-based, Rat; conditions: serum-deprived PC12 cells, 24 h
Experimental: Serum-deprived PC12 cells were treated with or without the indicated reagent(s) for 24 h. Cell viability was expressed as a percentage of the results from MTT assays compared to the mean of a serum-containing control group. Data points represent the mean±SEM (n=3˜6).
Rat PC12 cells purchased from American Type Culture Collection (ATCC; Manassas, Va., USA) were maintained in DMEM supplemented with 10% horse serum and 5% FBS and incubated in a CO2 incubator (5%) at 37° C. LIPOFECTAMINE™ 2000 (Invitrogen) was used as a vehicle to transfer plasmids into cells according to the manufacture's protocol. Plasmids were kindly provided by Dr. Pulst (Department of Neurology, University of Utah, USA). Normally, 5 μg of DNA combined with 5 μl of LIPOFECTAMINE™ 2000 was applied to each well of 6-well plates. The plating number was (1˜1.5)×10^6 cells/well. After transfections for 6 h, cells were treated with reagents for another 24 h. Images were taken with a Zeiss Axiovert 200M inverted fluorescence microscope (Göttingen, Germany).
MTT assay. Survival was assessed by 3-(4,5-dimethylthiazol-2-yl)-2,5-diphenyl tetrazolium bromide (MTT) metabolism assay. […] After discarding the medium, DMSO was applied to the well to dissolve formazan crystals, and the absorbances at 570 and 630 nm in each well were measured on a micro-enzyme-linked immunosorbent assay (ELISA) reader.

[5] = 3.7, 1.25, 0.5 and 0.1 mg/kg/day, subcutaneous osmotic pump, vs control mice

Sequence of human A2AR (P29274 whole entry): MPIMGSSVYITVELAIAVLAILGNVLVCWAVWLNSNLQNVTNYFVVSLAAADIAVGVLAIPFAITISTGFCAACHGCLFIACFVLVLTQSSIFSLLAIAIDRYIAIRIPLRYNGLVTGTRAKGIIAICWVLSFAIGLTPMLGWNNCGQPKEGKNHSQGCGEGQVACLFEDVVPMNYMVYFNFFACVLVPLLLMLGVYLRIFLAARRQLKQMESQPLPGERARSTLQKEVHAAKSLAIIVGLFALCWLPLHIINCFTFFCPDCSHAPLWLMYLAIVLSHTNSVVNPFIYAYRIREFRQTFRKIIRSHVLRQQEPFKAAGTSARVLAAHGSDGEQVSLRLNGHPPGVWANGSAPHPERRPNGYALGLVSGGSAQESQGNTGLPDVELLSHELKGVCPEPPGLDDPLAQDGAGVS

In the case of `OC[C@H]1O[C@@H](n2cnc3c(NCCc4c[nH]c5ccccc45)ncnc32)[C@H](O)[C@@H]1O` [JMF1907, N^6-[2-(indol-3-yl)ethyl]adenosine], the grip strength (TDP-43 transgenic mice; [5]) was “statistical significance was reached at all points for all tested doses; also recorded: performed significantly better”, the rotarod performance (TDP-43 transgenic mice; [5]) was “statistical significance was reached at all points for 1.5 & 0.5 mg/kg, from 12-21 wk for 0.1 mg/kg, and 10-12 wk for 3.7 mg/kg; also recorded: performed significantly better” and the “dose showing the greatest benefit” value (TDP-43 transgenic mice; rotarod and grip strength) was 1.25 mg/kg. For the same compound, the pKi (human A2AR) was 5.36, the pKi [1] was 5.46 and the “pontine neuronal death (NeuN staining)” value ([2]; daily oral 1 mg per day) was “significantly prevented neuronal death in the pontine nuclei; also recorded: significantly alleviated pontine neuronal death”. The rotarod performance ([2]; daily oral 1 mg per day) was “significantly improved rotarod performance”.

With `OC[C@H]1O[C@@H](n2cnc3c(NCc4ccc(Br)s4)ncnc32)[C@H](O)[C@@H]1O` [JMF3464, N^6-[(5-bromothien-2-yl)methyl]adenosine] the “oral absorption relative to T1-11” value ([3]; JMF3464 vs T1-11) was “more than 6 fold”, the bioavailability ([3]; male, mouse, plasma, oral 10 mg/kg vs intravenous 1 mg/kg) was 17.4% and the “motor coordination assessed by rotarod performance” value (R6/2 mice; R6/2 mice from 7 weeks old, 0.11 mg/kg/day, subcutaneous osmotic minipump, 6 weeks) was “counteracted the progressive deterioration in motor coordination”. For the same compound, the lifespan (R6/2 mice; R6/2 mice, sustained (long term) treatment) was “improved”, the TDP-43 mislocalization (NSC34 cells) was “reduced TDP-43 mislocalization; also recorded: normalized TDP-43 mislocalization” and the “effective dose (start)” value ([4]; i.p.) was no less than 0.1 mg/kg. For the same compound, the analgesic effect ([4]; i.p., dose-dependent, von Frey mechanical hyperalgesia) was “showed an analgesic effect”, the “analgesic effect, oral administration” value ([4]; p.o. 1 mg/kg) was “showed an analgesic effect” and the pKi (human A2AR) was 5.77. For the same compound, the pKi [1] was 7.30, the “rotarod performance / ataxia” value ([2]; daily 0.3 mg per day) was “greatly improved the rotarod performance; also recorded: alleviated the ataxia” and the “pontine neuronal death (NeuN staining)” value ([2]; daily oral 0.3 mg per day) was “significantly ameliorated neuronal death in the pontine nuclei; also recorded: alleviated”.

With `OC[C@H]1O[C@@H](n2cnc3c(NCc4ccc(Cl)s4)ncnc32)[C@H](O)[C@@H]1O` [JMF3818, N^6-[(5-Chlorothien-2-yl)methyl]adenosine] the “apoptosis of PC12 cells caused by serum withdrawal” value (PC12 cells) was “inhibited the apoptosis of PC12 cells caused by serum withdrawal”, the inhibition at 10 µM (human A2AR; read-out: inhibition of A2A receptor) was 54% and the inhibition at 10 µM ([1]; read-out: inhibition of adenosine transporter (ENT1)) was 96%.
